Assay results as given in US11566007B2, “Ras inhibitors” (Revolution Medicines, Inc., priority 2019, dated 2023).

Experiments:
[1] = test system: NCI-H358 cells (K-Ras G12C); assay: Potency assay: pERK in NCI-H358 cells; assay type: cell-based, human; details: Homo sapiens, NCI-H358; H358 KRAS G12C; read-out: pERK EC50
Procedure, shortened: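 Inhibition of cellular pERK after a 4 h treatment, detected by AlphaLISA or In-Cell Western. IC50 from a four-parameter concentration-response fit.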

KRAS G12S = KRAS G12S (Homo sapiens (Human), UniProt P01116+P62937, G12S); assay: Ras-Raf (BRAF RBD) disruption / FRET / MOA assay, KRAS G12S; assay type: biochemical; details: Ras-Raf disruption/FRET/MOA assay; class symbols; read-out: KRAS G12S FRET data IC50
Chain of KRAS G12S (P01116-2 other isoform, or with tags, fused parts or gaps G12S): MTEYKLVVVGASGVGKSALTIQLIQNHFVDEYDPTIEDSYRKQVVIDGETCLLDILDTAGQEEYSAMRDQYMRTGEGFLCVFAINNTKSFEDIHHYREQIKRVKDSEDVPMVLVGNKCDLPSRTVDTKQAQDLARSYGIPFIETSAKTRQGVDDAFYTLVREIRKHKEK
Chain of KRAS G12S (P62937 whole entry): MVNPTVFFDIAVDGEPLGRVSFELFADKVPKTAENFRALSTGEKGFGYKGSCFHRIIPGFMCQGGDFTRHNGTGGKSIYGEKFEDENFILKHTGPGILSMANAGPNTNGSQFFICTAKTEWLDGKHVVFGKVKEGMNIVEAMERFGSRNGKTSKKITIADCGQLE
Procedure, shortened: (§1)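 A 10-point, 3-fold dilution series topping at 30 μM final was incubated 3 h at 25° C with the Ras/cyclophilin A/BRAF RBD mixture.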

KRAS G12D = KRAS G12D (Homo sapiens (Human), UniProt P01116+P62937, G12D); assay: Ras-Raf (BRAF RBD) disruption / FRET / MOA assay, KRAS G12D; assay type: biochemical; details: Ras-Raf disruption/FRET/MOA assay; class symbols; read-out: KRAS G12D FRET data IC50
Chain of KRAS G12D (P01116-2 other isoform, or with tags, fused parts or gaps G12D): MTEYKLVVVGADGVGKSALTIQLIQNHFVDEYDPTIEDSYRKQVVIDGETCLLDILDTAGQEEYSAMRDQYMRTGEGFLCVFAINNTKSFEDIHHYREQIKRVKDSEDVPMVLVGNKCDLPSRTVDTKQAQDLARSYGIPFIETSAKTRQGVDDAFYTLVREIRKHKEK
Chain of KRAS G12D (P62937 whole entry): as the sequence (P62937 whole entry) above
Procedure, shortened: as §1

KRAS G13D = KRAS G13D (Homo sapiens (Human), UniProt P01116+P62937, G13D); assay: Ras-Raf (BRAF RBD) disruption / FRET / MOA assay, KRAS G13D; assay type: biochemical; details: read-out: IC50* KRAS G13D FRET data
Chain of KRAS G13D (P01116-2 other isoform, or with tags, fused parts or gaps G13D): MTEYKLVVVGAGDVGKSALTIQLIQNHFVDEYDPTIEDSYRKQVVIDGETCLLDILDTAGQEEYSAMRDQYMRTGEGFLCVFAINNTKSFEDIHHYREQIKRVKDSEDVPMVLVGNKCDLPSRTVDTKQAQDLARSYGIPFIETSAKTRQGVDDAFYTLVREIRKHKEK
Chain of KRAS G13D (P62937 whole entry): as the sequence (P62937 whole entry) above
Procedure, shortened: as §1

KRAS Q61H = KRAS Q61H (Homo sapiens (Human), UniProt P01116+P62937, Q61H); assay: Ras-Raf (BRAF RBD) disruption / FRET / MOA assay, KRAS Q61H; assay type: biochemical; details: Ras-Raf disruption/FRET/MOA assay; class symbols; read-out: KRAS Q61H FRET data IC50
Chain of KRAS Q61H (P01116-2 other isoform, or with tags, fused parts or gaps Q61H): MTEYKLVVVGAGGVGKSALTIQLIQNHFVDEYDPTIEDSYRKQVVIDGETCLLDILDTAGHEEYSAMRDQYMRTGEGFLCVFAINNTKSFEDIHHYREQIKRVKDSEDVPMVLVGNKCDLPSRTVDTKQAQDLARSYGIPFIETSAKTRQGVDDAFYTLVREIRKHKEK
Chain of KRAS Q61H (P62937 whole entry): as the sequence (P62937 whole entry) above
Procedure, shortened: (§2)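 Compounds (30 μM top final, 10-point 3-fold dilutions) incubated 3 h at 25° C with nucleotide-loaded Ras, cyclophilin A and BRAF RBD. Detection with 10 nM anti-His Eu-W1024 and 50 nM anti-GST allophycocyanin over another 1.5 h. Lowered TR-FRET ratio relative to DMSO wells gives IC50.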

NRAS Q61R = NRAS Q61R (Homo sapiens (Human), UniProt P01111+P62937, Q61R); assay: Ras-Raf (BRAF RBD) disruption / FRET / MOA assay, NRAS Q61R; assay type: biochemical; details: NRAS Q61R; Ras-Raf disruption/FRET/MOA assay; read-out: IC50* NRAS Q61R FRET data
Chain of NRAS Q61R (P01111 whole entry Q61R): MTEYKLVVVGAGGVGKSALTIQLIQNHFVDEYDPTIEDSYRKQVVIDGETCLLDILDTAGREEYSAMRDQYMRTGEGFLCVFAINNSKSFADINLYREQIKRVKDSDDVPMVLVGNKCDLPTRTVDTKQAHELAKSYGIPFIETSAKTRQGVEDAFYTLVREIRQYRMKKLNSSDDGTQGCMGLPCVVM
Chain of NRAS Q61R (P62937 whole entry): as the sequence (P62937 whole entry) above
Procedure, shortened: as §2

| SMILES | EC50 [1] | IC50 (KRAS G12S) | IC50 (KRAS G12D) | IC50 (KRAS G13D) | IC50 (KRAS Q61H) | IC50 (NRAS Q61R) |
| --- | --- | --- | --- | --- | --- | --- |
| CCn1c(-c2cccnc2[C@H](C)OC)c2c3cc(ccc31)-c1cccc(c1)C[C@H](NC(=O)[C@H](C(C)C)N(C)C(=O)C1(F)CCN(C(=O)/C=C/CN(C)C)CC1)C(=O)N1CCC[C@H](N1)C(=O)OCC(C)(C)C2 (atropisomer, axis not shown) [Example A685] | < 5000 nM | 100 to 1000 nM | 100 to 1000 nM | 100 to 1000 nM | 100 to 1000 nM | 100 to 1000 nM |
| CO[C@@H](C)c1ncccc1-c1c2c3cc(ccc3n1CC(F)(F)F)-c1cccc(c1)C[C@H](NC(=O)[C@H](C(C)C)N1CC[C@]3(CCN(C(=O)C#CC(C)(C)N(C)C)C3)C1=O)C(=O)N1CCC[C@H](N1)C(=O)OCC(C)(C)C2 (atropisomer, axis not shown) [Example A689] | < 5000 nM | 100 to 1000 nM | 1000 to 10000 nM | 1000 to 10000 nM | 100 to 1000 nM | 1000 to 10000 nM |
| CCn1c(-c2cccnc2[C@H](C)OC)c2c3cc(ccc31)-c1csc(n1)C[C@H](NC(=O)[C@H](C(C)C)N(C)C(=O)N(C)C1CN(C(=O)/C=C/C3CN(C)C3)C1)C(=O)N1CCC[C@H](N1)C(=O)OCC(C)(C)C2 (atropisomer, axis not shown) [Example A690] | < 5000 nM | 100 to 1000 nM | 1000 to 10000 nM | 100 to 1000 nM | 100 to 1000 nM | 100 to 1000 nM |
| CO[C@@H](C)c1ncccc1-c1c2c3cc(ccc3n1CC(F)(F)F)-c1cccc(c1)C[C@H](NC(=O)[C@@H](COC1CN(C(=O)C#CC3(C)OCCO3)C1)C(C)C)C(=O)N1CCC[C@H](N1)C(=O)OCC(C)(C)C2 (atropisomer, axis not shown) [Example A703] | < 5000 nM | > 10000 nM | > 10000 nM | > 10000 nM | 1000 to 10000 nM | > 10000 nM |
| C=CC(=O)N1CC(N(C)C(=O)N(C)[C@H](C(=O)N[C@H]2Cc3nc(cs3)-c3ccc4c(c3)c(c(-c3cccnc3[C@H](C)OC)n4CC(F)(F)F)CC(C)(C)COC(=O)[C@@H]3CCCN(N3)C2=O)C(C)C)C1 (atropisomer, axis not shown) [Example A711] | < 5000 nM | 100 to 1000 nM | 100 to 1000 nM | 100 to 1000 nM | 10 to 100 nM | 100 to 1000 nM |
| CCn1c(-c2cccnc2[C@H](C)OC)c2c3cc(ccc31)-c1csc(n1)C[C@H](NC(=O)[C@@H](COC1CN(C(=O)C#CC(C)(C)N(C)C)C1)C(C)C)C(=O)N1CCC[C@H](N1)C(=O)OCC(C)(C)C2 (atropisomer, axis not shown) [Example A721] | < 5000 nM | > 10000 nM | > 10000 nM | > 10000 nM | 1000 to 10000 nM | > 10000 nM |
| CO[C@@H](C)c1ncccc1-c1c2c3cc(ccc3n1CC(F)(F)F)-c1cccc(c1)C[C@H](NC(=O)[C@H](C(C)C)N(C)C(=O)[C@H]1CCN(C(=O)C#CC(C)(C)N(C)C)C1)C(=O)N1CCC[C@H](N1)C(=O)OCC(C)(C)C2 (atropisomer, axis not shown) [Example A727] | < 5000 nM | 1000 to 10000 nM | 1000 to 10000 nM | 1000 to 10000 nM | 1000 to 10000 nM | 1000 to 10000 nM |
| CCn1c(-c2cccnc2)c2c3cc(ccc31)-c1csc(c1)C[C@H](NC(=O)[C@H](C(C)C)N(C)C(=O)[C@H]1CCN(C(=O)C#CCN3CCOCC3)C1)C(=O)N1CCC[C@H](N1)C(=O)OCC(C)(C)C2 [Example A205] | < 5000 nM | > 10000 nM | > 10000 nM | > 10000 nM | > 10000 nM | > 10000 nM |
| C=CC(=O)N1CC[C@H](C(=O)N(C)[C@H](C(=O)N[C@H]2C[C@H]3CN(CCO3)c3ccc4c(c3)c(c(-c3cccnc3COC)n4CC)CC(C)(C)COC(=O)[C@@H]3CCCN(N3)C2=O)C(C)C)C1 [Example A240] | < 5000 nM | > 10000 nM | > 10000 nM | > 10000 nM | > 10000 nM | > 10000 nM |
| CCn1c(-c2cccnc2[C@H](C)OC)c2c3cc(ccc31)N1CCO[C@@](C)(C[C@H](NC(=O)[C@H](C(C)C)N(C)C(=O)C3(F)CCN(C(=O)C#CC(C)(C)N(C)C)CC3)C(=O)N3CCC[C@H](N3)C(=O)OCC(C)(C)C2)C1 [Example A550] | < 5000 nM | 1000 to 10000 nM | 1000 to 10000 nM | 1000 to 10000 nM | 1000 to 10000 nM | 1000 to 10000 nM |
| C=CC(=O)N1CCO[C@H]2CN(C(=O)N(C)[C@H](C(=O)N[C@H]3C[C@H]4CN(CCO4)c4ccc5c(c4)c(c(-c4cccnc4[C@H](C)OC)n5CC)CC(C)(C)COC(=O)[C@@H]4CCCN(N4)C3=O)C(C)C)C[C@H]21 [Example A562] | < 5000 nM | 1000 to 10000 nM | 1000 to 10000 nM | 1000 to 10000 nM | 1000 to 10000 nM | > 10000 nM |
